Measurements taken from ChEMBL document CHEMBL1201862, “PubChem BioAssay data set” (2004).
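In this assay, cells in 96-well plates receive the compound at five concentrations for 48 hours. Endpoints are linearly interpolated between the surrounding concentrations. Abbreviation: GI50, concentration required for 50% inhibition of growth.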 The source made the active and inactive calls. Rule as the data show it: active = GI50 up to about 1.1 µM and inactive = higher.

How the values were obtained:
Assay in all cases: growth of human tumour cells (NCI), 48 h
HOP-18 = system: HOP-18
M19-MEL = system: M19-MEL
SNB-78 = system: SNB-78
RXF 631 = system: RXF 631
DLD-1 = system: DLD-1
DMS-273 = system: DMS-273
DMS-114 = system: DMS-114
KM-20L2 = system: KM-20L2

Measured: GI50

COC(=O)C1C2C=CC(C2)C1(C(=O)OC)[S+]([O-])CC12CCC(CC1O)C2(C)C (centres undefined)
inactive: HOP-18 > 100 µM | M19-MEL > 100 µM | SNB-78 > 100 µM | RXF 631 > 100 µM | DLD-1 60.8 µM | DMS-273 44.4 µM | DMS-114 85.7 µM | KM-20L2 > 100 µM

N#CC1CCCCOCCOCCOCCOCCOCCCCCC1=O (centres undefined)
inactive: HOP-18 > 100 µM | M19-MEL > 100 µM | SNB-78 > 100 µM | RXF 631 > 100 µM | DLD-1 > 100 µM | DMS-273 > 100 µM | DMS-114 > 100 µM | KM-20L2 > 100 µM

CCOC(=O)Nc1ccc(S(=O)(=O)OC)cc1.CCOC(=O)Nc1ccc(S(=O)(=O)OC)cc1.Nc1ncnc2c1ncn2C1OC(CO)C(O)C1O (centres undefined)
inactive: HOP-18 > 100 µM | M19-MEL 21.9 µM | SNB-78 > 100 µM | RXF 631 > 100 µM | DLD-1 33.1 µM | DMS-273 30.8 µM | DMS-114 18 µM | KM-20L2 > 100 µM
